Here are results for one substance from patent US11400085B2, “Method for preparing pharmaceutical composition for preventing or treating cognitive impairment-related disease and pharmaceutical composition for preventing or treating cognitive impairment-related disease prepared by the same” (priority 2018, dated 2022).

The data set is described as follows: Comparison of blood concentrations of donepezil after injection or oral administration. Format: in vivo. To be noted: beagle dog, orally administered.

Turning to donepezil, the blood concentration duration entry is “very short for about one day”.
